Patent US9408392B2, “Compounds” (SYNGENTA PARTICIPATIONS AG, priority 2012, dated 2016)
Where “and” joins values, the source holds several entries; their conditions need not be identical. Equal entries are not always repeated.

Columns and labels:
M. incognita = assay: Meloidogyne spp. (Root-knot nematode) contact activity, preventive, drench test (Biological Screen Nem 2); format: in vivo; settings: cucumber cv. Toshka in pots, WP10 suspension at 20 ppm, 3000 eggs of M. incognita, harvested after fourteen days, Zeck's gall index, cis vs trans isomers
Experimental: Meloidogyne spp. (Root-knot nematode) contact activity, preventive, drench test. Cucumber cv. Toshka seeds were shown directly into pots filled with a sandy substrate. Six days later pots were each treated with 5 ml of a WP10 suspension of the test compound at 20 ppm. Hereafter pots were inoculated with 3000 eggs of M. incognita. The trial was harvested fourteen days after trial application and inoculation. Root galling was assessed according to Zeck's gall index (Zeck, 1971). Biological Screen Nem 2. Meloidogyne spp. (Root-knot nematode) contact activity, preventive, drench test. Values are given in % galling.

[1] = system: Meloidogyne spp. (Root-knot nematode); assay: Meloidogyne spp. (Root-knot nematode) contact activity, preventive, pouch test (Biological Screen Nem 1); format: in vivo; settings: cucumber cv. Toshka, test solutions at 200 ppm, 3000 eggs, assessed after twelve days, cis vs trans isomers
Experimental: Meloidogyne spp. (Root-knot nematode) contact activity, preventive. Pouch test. Filter papers (9 cm×4.5 cm) with a small pocket were placed into plastic pouches (12 cm×6 cm). One cucumber cv. Toshka seed was placed in the centre of the filter paper pocket of all the pouches needed for a test. The cucumber seeds in the pouches were treated with test solutions at 200 ppm by pipetting the solution directly over the cucumber seed in the filter paper pocket in the pouch. Prior to application, the compound solution was prepared at twice the concentration required and the egg suspension is prepared with FORL nutrient solution with 3000 eggs/0.5 ml. After applying all the treatments, 3000 eggs (in 0.5 ml of FORL nutrient solution) were pipetted into the pouches. The pouches were incubated in a moist chamber for twelve days and watered regularly to maintain good filter paper moisture essential for the growing cucumber root system. After this period, the filter paper containing the germinated cucumber seedling was removed from the plastic pouch to assess the number of galls caused by Meloidogyne spp. per root system. Biological Screen Nem 1. Meloidogyne spp. (Root-knot nematode) contact activity, preventive. Pouch test. Values are given in % galling.

Row | Compound | melting point | Nem 2 (% galling) (M. incognita) | Nem 1 (% galling) [1]
1 | C[C@H]1C(NC(=O)c2c(F)cccc2F)[C@H]1c1ccc(F)cc1 (mixture of isomers) [Compound 68.003, 2,6-difluoro-N-[(1R,2R,3R)-2-(4-fluorophenyl)-3-methyl-cyclopropyl]benzamide] | 90 to 96 °C |  | 
2 | C[C@]1(c2ccc(Cl)cc2)CC1NC(=O)c1c(F)cccc1F (mixture of isomers) [Compound 68.009, N-[(1R,2R)-2-(4-chlorophenyl)-2-methyl-cyclopropyl]-2,6-difluoro-benzamide] | 140 to 142 °C |  | 
3 | O=C(N[C@@H]1C[C@@H]1c1ccc(Cl)cc1Cl)c1ccccc1C(F)(F)F (racemic) [Compound 67-014] |  | 98% | 100%
4 | C[C@H]1C(c2ccc(Cl)cc2)[C@@H]1NC(=O)c1ccccc1C(F)(F)F (mixture of isomers) [Compound 68.008, N-[(1R,2R,3S)-2-(4-chlorophenyl)-3-methyl-cyclopropyl]-2-(trifluoromethyl)benzamide] | 167 to 169 °C |  | 
5 | O=C(N[C@@H]1C[C@@H]1c1ccc(OC(F)F)cc1)c1ccccc1C(F)(F)F (relative stereo) [Compound 67-011, N-[cis-2-(4-difluoromethoxy-phenyl)-cyclopropyl]-2-trifluoromethyl-benzamide] | 133 to 136 °C |  | 
6 | O=C(N[C@@H]1C[C@@H]1c1ccc(C(F)(F)F)cc1)c1ccccc1C(F)(F)F (racemic) [Compound 67-026] |  | 82% | 64%
7 | Cn1cc(C(=O)N[C@@H]2C[C@@H]2c2ccc(F)cc2)c(C(F)F)n1 (relative stereo) [Compound 67.002, 3-difluoromethyl-1-methyl-1H-pyrazole-4-carboxylic acid [(cis)-2-(4-fluoro-phenyl)-cyclopropyl]-amide] | 141 to 143 °C |  | 
8 | O=C(N[C@@H]1C[C@@H]1c1ccc(F)cc1)c1ccccc1C(F)(F)F (relative stereo) [Compound 67-003, N-[cis-2-(4-Fluoro-Phenyl)-Cyclopropyl]-2-Trifluoromethyl-benzamide] | 140 to 142 °C and 139 to 140 °C |  | 
9 | O=C(N[C@@H]1CC1c1ccc(Cl)cc1Cl)c1c(F)cccc1F (stereo partly shown) [Compound 67-016] | 179 to 182 °C | 96% | 81%
